Experimental data: patent US4791200A, “2-substituted-4-aryl-substituted thiazoles” (Ortho Pharmaceutical Corporation, priority 1987, dated 1988)
Read-outs that look alike come from different tables or passages of the source.

Key:
parietal cells = test: Isolated Parietal Cell Assay (14C-aminopyrine accumulation, histamine or dibutyryl cAMP stimulated); type: cell-based, rabbit; settings: Oryctolagus cuniculus
Procedure: The isolated parietal cell assay was conducted using the procedures of Batzri, S. et al., Biochemica et Biophysica Acta 508, 328 (1978) and Soll, A. H. Am. J. Physiol. 238, G366 (1980). Basically, parietal cells were isolated from the fundic mucosa of rabbit stomachs by a four-stage collagenase digestion process. The supernatant fractions from the last two stages of this process contain the individual parietal cells. This cell suspension was centrifuged and reconstituted in a modified Hank's buffer to contain 1-2×10^6 cells/ml. […] This accumulation was stimulated by histamine and was blocked by H2 antagonists. The cells were incubated with 0.4-0.5×10^6 cpm ^14 C-AP, with various concentrations of histamine as a stimulant, 1×10^-5 M isobutylmethylxanthine, and the test compound added in a 20 μl volume of buffer or DMSO. The flasks were incubated in a shaking water bath at 37° C. for 20 minutes. Two aliquots were then taken from each flask and cell pellets were collected by centrifugation. The pellets were solubilized with Protosol (New England Nuclear) and radioactivity determined by liquid scintillation spectrometry. Data is presented as the IC50 vhist, the concentration of compound required to inhibit ^14 C-AP accumulation in the histamine stimulated parietal cell by 50%.
When dibutyryl cAMP was used to stimulate the cells instead of histamine, a similar inhibition of ^14 C-AP accumulation was measured and the data are presented as the IC50 vcAMP, the concentration required to inhibit ^14 C-AP accumulation in the cAMP stimulated parietal cell by 50%.

[1] = target: T1, parietal cell H^+ K^+ ATPase (Oryctolagus cuniculus, UniProt P27112); test: Inhibition of Parietal Cell H^+ K^+ ATPase; type: biochemical, New Zealand white rabbits; settings: read-out: % Inhibition at Concentration; for inhibition at 100 µM: at 10^-4 M
T1 construct: determined in fundic mucosa from New Zealand white rabbits which were homogenized; from tissue; host or cells: fundic mucosa of New Zealand white rabbits, homogenized; membrane protein
T1 sequence (P27112 2-1035 limits assumed): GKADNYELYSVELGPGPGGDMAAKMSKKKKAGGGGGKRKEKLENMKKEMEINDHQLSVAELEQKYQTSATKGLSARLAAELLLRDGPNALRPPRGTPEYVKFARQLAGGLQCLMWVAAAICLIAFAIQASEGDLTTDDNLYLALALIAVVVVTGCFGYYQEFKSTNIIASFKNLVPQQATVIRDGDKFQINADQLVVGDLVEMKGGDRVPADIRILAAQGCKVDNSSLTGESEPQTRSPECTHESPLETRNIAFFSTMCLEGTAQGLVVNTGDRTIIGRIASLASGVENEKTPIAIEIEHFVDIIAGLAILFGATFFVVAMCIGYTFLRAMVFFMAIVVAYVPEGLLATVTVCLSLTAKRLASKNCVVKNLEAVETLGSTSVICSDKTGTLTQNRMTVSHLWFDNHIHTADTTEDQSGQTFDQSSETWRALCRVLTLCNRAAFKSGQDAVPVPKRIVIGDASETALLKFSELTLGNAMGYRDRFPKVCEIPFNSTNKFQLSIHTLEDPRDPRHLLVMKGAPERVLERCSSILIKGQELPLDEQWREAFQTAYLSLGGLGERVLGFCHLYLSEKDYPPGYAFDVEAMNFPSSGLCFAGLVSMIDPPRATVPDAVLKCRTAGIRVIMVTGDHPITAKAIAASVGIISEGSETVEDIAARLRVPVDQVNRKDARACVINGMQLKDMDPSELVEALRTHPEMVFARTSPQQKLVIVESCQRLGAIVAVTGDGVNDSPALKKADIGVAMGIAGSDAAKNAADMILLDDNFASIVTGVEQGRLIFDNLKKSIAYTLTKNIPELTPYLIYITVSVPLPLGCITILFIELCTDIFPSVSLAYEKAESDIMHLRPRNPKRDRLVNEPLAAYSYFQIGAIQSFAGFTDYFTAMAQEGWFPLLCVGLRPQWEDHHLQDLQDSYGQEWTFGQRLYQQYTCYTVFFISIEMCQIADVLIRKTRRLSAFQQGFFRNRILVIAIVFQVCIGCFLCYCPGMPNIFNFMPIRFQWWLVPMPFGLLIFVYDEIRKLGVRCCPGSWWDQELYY
T1 sequence (P18597 whole entry partner): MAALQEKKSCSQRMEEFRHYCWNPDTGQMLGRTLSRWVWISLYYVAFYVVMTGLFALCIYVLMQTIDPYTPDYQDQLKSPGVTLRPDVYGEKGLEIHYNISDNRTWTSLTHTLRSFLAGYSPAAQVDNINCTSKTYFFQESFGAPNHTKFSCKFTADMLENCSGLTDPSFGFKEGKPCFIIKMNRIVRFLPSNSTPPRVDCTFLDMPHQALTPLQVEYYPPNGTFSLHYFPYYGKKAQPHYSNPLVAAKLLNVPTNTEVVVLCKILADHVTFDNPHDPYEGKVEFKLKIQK
Procedure: The activity was measured in a 1 ml incubation volume containing 50 mM Tris pH 7.4, 2 mM MgCl2, 2 mM Na2 ATP, with or without 20 mM KCl and vehicle control (dimethylsulfoxide) or test compound added in a 0.02 ml volume. Typically, 20-50 μg membrane protein was added and the tubes were preincubated with test compound for 10 minutes at 37° C. Substrate, Na2 ATP, was then added and the tubes were incubated for another 15 minutes at 37° C. The reaction was stopped by the addition of 1 ml 14% trichloroacetic acid and the samples were centrifuged at 2,000 ×g for 10 minutes. The amount of inorganic phosphate present in an aliquot of supernatant was determined. H^+ K^+ ATPase activity was determined after correcting for the basal (Mg^++ only) enzyme activity present in the membrane preparation.

[2] = test system: acid output (gastric secretion); test: Gastric Secretion (pylorus ligation, modified Shay); type: in vivo, male Charles River Sprague Dawley derived rats; settings: i.d. or s.c., 4 hours after ligation; for response vs control in vivo at 40 mg/kg: at 40 mpK
Procedure: The inhibitory activity of the compounds on acid output was tested using pylorus ligation in a modification of the procedure of Shay, H. et al., Gastroenterology 26, 906 (1954). Basically, male Charles River Sprague Dawley derived rats weighing 150-300 grams were deprived of food but not water for 18-24 hours prior to use. Water was withheld during the experiment, however. The rats were weighed, anesthetized with ether and the pylorus ligated according to the method of Shay et al., supra. Treatment or vehicle control was then administered intraduodenally (i.d.) or subcutaneously (s.c.). Rats were housed two/cage and sacrificed with CO2 four hours after ligation. The stomachs were removed, rinsed, and contents emptied into a graduated centrifuge tube. The tubes were centrifuged, the volume of gastric juice recorded, and any samples obviously contaminated by feces, food or blood were eliminated. A 1 ml aliquot of gastric juice was titrated with 0.1N NaOH to a pH of 7.0-7.4. The volume of gastric juice secreted, the acid concentration, and the product of the volume times the concentration, i.e., the total amount of acid secreted, were measured.

[3] = 20 min, histamine stimulated, 37° C., 20 minutes, read-out: IC50 vhist (inhibition of 14C-AP accumulation in the histamine stimulated parietal cell)
[4] = dibutyryl cAMP stimulated, read-out: IC50 vcAMP (inhibition of 14C-AP accumulation in the cAMP stimulated parietal cell)
[5] = Rattus norvegicus, read-out: % Acid Secreted at mpK

| Structure (SMILES) | IC50 (parietal cells; [3]) [nM] | IC50 (parietal cells; [4]) [nM] | inhibition at 100 µM [1] [%] | response vs control in vivo at 40 mg/kg [2, 5] [%] | % Acid Secreted at mpK ([2]; at 20 mpK) [%] | further results |
| --- | --- | --- | --- | --- | --- | --- |
| CCCCN(CCCC)CCCOc1ccc(-c2csc(-c3ccccc3)n2)cc1 [Example 1, 4-(4-Dibutylaminopropoxyphenyl)-2-phenylthiazole] | 450 | 420 | 47 | 97 | 75 | response vs control in vivo at 17 mg/kg ([2]; Rattus norvegicus, at 17.0 mpK, read-out: % Acid Secreted at mpK): 50% |
| CCCCN(CCCC)CCCOc1ccc(-c2csc(C)n2)cc1 [Example 2, 4-(4-Dibutylaminopropoxyphenyl)-2-methylthiazole] | 1500 | 8400 | 22 | – | 8 | – |
| CCCCN(CCCC)CCCOc1ccc(-c2nc(-c3ccccc3)sc2C)cc1 [Example 3, 4-(4-Dibutylaminopropoxyphenyl)-5-methyl-2-phenylthiazole] | 270 | 230 | 65 | – | 36 | – |
| CCN(CC)CCCOc1ccc(-c2csc(-c3ccccc3)n2)cc1 [Example 4, 4-(4-Diethylaminopropoxyphenyl)-2-phenylthiazole] | 120 | 90 | – | 82 | – | inhibition at 47 µM ([1]; at 47 μM): 50% |
| CCCN(CCC)CCCOc1ccc(-c2csc(-c3ccccc3)n2)cc1 [Example 5, 4-(4-Dipropylaminopropoxyphenyl)-2-phenylthiazole] | 230 | 180 | 60 | 94 | – | – |
| CN1CCN(CCCOc2ccc(-c3csc(-c4ccccc4)n3)cc2)CC1 [Example 6, 4-[4-(4-Methylpiperazol-1-yl)propoxyphenyl]-2-phenylthiazole] | 180 | 120 | – | 18 | – | inhibition at 44 µM ([1]; at 44 μM): 50% |
| COc1ccccc1N1CCN(CCCOc2ccc(-c3csc(-c4ccccc4)n3)cc2)CC1 [Example 7, 4-[4-[4-(2-Methoxyphenyl)piperazol-1-yl]propoxyphenyl]-2-phenylthiazole] | 480 | 340 | 28 | – | – | – |
| c1ccc(-c2nc(-c3ccc(OCCCN4CCCCC4)cc3)cs2)cc1 [Example 8, 4-[4-(3-Piperidino)propoxyphenyl]-2-phenylthiazole] | 110 | 50 | – | 92 | 46 | inhibition at 34 µM ([1]; at 34 μM): 50%; % Acid Secreted at mpK ([2]; at 10 mpK): 25% |
| c1ccc(-c2nc(-c3ccc(OCCCN4CCCC4)cc3)cs2)cc1 [Example 9, 4-[4-(3-Pyrrolidino)propoxyphenyl]-2-phenylthiazole] | 390 | < 10000 | – | – | 36 | inhibition at 32 µM ([1]; at 32 μM): 50% |
| c1ccc(-c2nc(-c3ccc(OCCCn4ccnc4)cc3)cs2)cc1 [Example 10, 4-[4-(1H-Imidazol-1-yl)propoxyphenyl]-2-phenylthiazole] | 80 | 20 | – | – | 91 | inhibition at 18 µM ([1]; at 18 μM): 50%; response vs control in vivo at 5 mg/kg ([2]; Rattus norvegicus, at 5 mpK, read-out: % Acid Secreted at mpK): 33%; response vs control in vivo at 5.7 mg/kg ([2]; Rattus norvegicus, at 5.7 mpK, read-out: % Acid Secreted at mpK): 50%; % Acid Secreted at mpK ([2]; at 10 mpK): 78% |
| CN(CCCOc1ccc(-c2csc(-c3ccccc3)n2)cc1)Cc1ccccc1 [Example 11, 4-(4-Benzylmethylaminopropoxyphenyl)-2-phenylthiazole] | 370 | 210 | 39 | – | 48 | – |
| CCCCN(CCCC)CCOc1ccc(-c2csc(-c3ccccc3)n2)cc1 [Example 12, 4-(4-Dibutylaminoethoxyphenyl)-2-phenylthiazole] | 310 | 350 | 44 | – | 41 | – |
| CCCCN(CCCC)CCCCOc1ccc(-c2csc(-c3ccccc3)n2)cc1 [Example 13] | 130 | 120 | 64 | 90 | 56 | – |
| c1ccc(-c2nc(-c3ccc(OCCCCn4ccnc4)cc3)cs2)cc1 [Example 14] | 820 | 310 | 0 | 31 | – | – |
| CCCCN(CCCC)CCCCCOc1ccc(-c2csc(-c3ccccc3)n2)cc1 [Example 15] | 490 | 860 | 58 | – | 54 | – |
| CCCCN(CCCC)CCCOc1ccc(-c2csc(-c3ccc(Cl)cc3)n2)cc1 [Example 16] | 2100 | 1800 | 55 | – | 40 | – |
| CCCCN(CCCC)CCCOc1ccc(-c2csc(-c3ccc(OC)cc3)n2)cc1 [Example 17, 4-(4-Dibutylaminopropoxyphenyl)-2-(4-methoxyphenyl)thiazole] | 480 | 230 | 33 | – | 4 | – |
| CCCCN(CCCC)CCCOc1ccc(-c2csc(-c3cc(OC)cc(OC)c3)n2)cc1 [Example 18, 4-(4-Dibutylaminopropoxyphenyl)-2-(3,5-dimethoxyphenyl)thiazole] | 260 | 540 | 30 | – | 17 | – |
| CCCCN(CCCC)CCCOc1ccc(-c2csc(-c3ccc(C)cc3)n2)cc1 [Example 19, 4-(4-Dibutylaminopropoxyphenyl)-2-(4-methylphenyl)thiazole] | 1500 | 3000 | – | – | 41 | inhibition at 24 µM ([1]; at 24 μM): 50% |
| CCCCN(CCCC)CCCOc1ccc(-c2csc(-c3ccc(C(F)(F)F)cc3)n2)cc1 [Example 20, 4-(4-Dibutylaminopropoxyphenyl)-2-(4-trifluoromethylphenyl)thiazole] | 2900 | 2000 | – | 40 | – | inhibition at 10.6 µM ([1]; at 10.6 μM): 50% |
| CCCCN(CCCC)CCCOc1ccc(-c2csc(-c3cccnc3)n2)cc1 [Example 21, 4-(4-Dibutylaminopropoxyphenyl)-2-(3-pyridinyl)thiazole] | 1650 | 880 | – | – | 19 | inhibition at 20 µM ([1]; at 20 μM): 50% |
| CCCCN(CCCC)CCCOc1c(Cl)cc(-c2csc(-c3ccccc3)n2)cc1Cl [Example 22, 4-[3,5-Dichloro-4-(dibutylaminopropoxy)phenyl]-2-phenylthiazole] | 580 | 240 | 29 | – | 41 | – |
| Clc1cc(-c2csc(-c3ccccc3)n2)cc(Cl)c1OCCCn1ccnc1 [Example 23, 4-[3,5-Dichloro-4-(1H-imidazol-1-yl)propoxyphenyl]-2-phenylthiazole] | 400 | 460 | – | – | 33 | inhibition at 2.4 µM ([1]; at 2.4 μM): 50% |
